Results taken from US20240010654A1, “CRYSTALLINE FORMS OF A TYK2 INHIBITOR” (Ventyx Biosciences, Inc., priority 2022, published 2024).
Several values for one entry are separate records, joined by “and”; a condition that tells them apart may be missing. Identical values can stand only once. Counter-ions that a name gives are not always drawn. Like-named read-outs stand apart in the source and are kept apart here. Values belong to the compound of their own block, whether it stands above or below them.

Assays:
[1] = Competitive slurry experiments of Compound 1 adipate, Forms 1, 2 and 3; assay type: physicochemical; settings: from the competitive slurry experiments
Description: The resulting solid was collected by filtration and analyzed by XRPD.
A mixed sample of Compound 1 adipate, […] and Compound 1 adipate, Form 2 was suspended in solvents (40 mg, 0.5 mL) and stirred at 50° C. for 1 h. The resulting solid was collected by filtration and analyzed by XRPD.

[2] = Stability test of Compound 1 adipate, Form 1 (HPLC purity and XRPD after storage); assay type: physicochemical; settings: for XRPD (crystal form at day 7): after 7 days storage
Description: Samples were prepared in duplicate for each condition. At day 7, the samples were analyzed by HPLC and XRPD to check the purity and the crystal form, respectively.

[3] = Pharmacokinetics following oral administration in male cynomolgus monkeys; assay type: in vivo; settings: for AUC/Dose: in ng·h/mL per mg/kg; for Cmax: read-out: C0/Cmax
Description: The gavage tube was flushed with 5 mL of vehicle after administration of the dose. Plasma samples were collected at the following time points: 15 min, 30 min, 1 hr, 2 hr, 4 hr, 6 hr, 8 hr and 24 hr postdose. The concentrations of Compound 1 were determined in plasma.

[4] = Dynamic Vapor Sorption (DVS); assay type: physicochemical; settings: for hygroscopicity of the material (DVS): 25° C.; for Post-DVS analysis by XRPD: after DVS cycle at 25° C.
Description: DVS data was collected on a Vsorp Dynamic Moisture Sorption Analyzer (ProUmid GmbH & Co. KG, Germany). The sample was placed into a tared sample chamber and automatically weighed. • Sample temperature: 25° C. • Cycle: Full cycle • Adsorption: 0, 10, 20, 30, 40, 50, 60, 70, 80, 90 • Desorption: 80, 70, 60, 50, 40, 30, 20, 10, 0 • Characterize the sample after the DVS experiment by XRPD
Alternatively, DVS analysis was carried out using a Surface Measurement System DVS Intrinsic analyzer. The instrument was calibrated with standard weights. Approximately 15-20 mg of sample was loaded into a pan for analysis. The sample was analyzed at 25° C. in 10% relative humidity (RH) steps from 50% to 95% RH (adsorption cycle), from 95% to 0% RH (desorption cycle), and from 0% to 50% RH (adsorption cycle). The movement from one step to the next occurred either after satisfying the equilibrium criterion of 0.002% weight change (dm/dt) or, if the equilibrium criterion was not met, after ten hours. Samples after the DVS test were tested by XRPD.

[5] = system: JAK1/TYK2; experiment: Co-stimulation assay in lysed whole blood: IFNa (JAK1/TYK2) stimulated STAT1 phosphorylation; assay type: cell-based; settings: lysed human whole blood, IFNa 100 ng/mL, pSTAT1 by flow cytometry; read-out: IFN-a/Jak1Tyk2 IC50
Description: Example 16: Co-Stimulation Assay in Lysed Whole Blood; JAK2: GM-CSF Stimulated STAT5 Phosphorylation and JAK1/TYK2 Stimulated STAT1 Phosphorylation Assay
Dilute RBC lysis buffer to 1× in distilled water. Add 2 mL blood to 38 mL of 1×RBC-lysis buffer. Incubate for 15 mins at RT, in dark. Spin at 300 g, 5 mins, to collect the pellet. Re-lyse if necessary. Re-suspend pellet in 5 mL of cRPMI.
Aliquot 80 μL of lysed human blood in to wells of 96 deep-well plate. Add 10 μL of (10× conc.) of different concentrations of Compound 1 to all wells except controls (unstained and unstimulated) and mix it with the help of 100 uL multichannel. Add 10 uL of RPMI media in controls. For dilution of Compound 1 and dilution range please refer Appendix. Incubate on water bath or CO2 incubator for 1 hour at 37° C. Add 10 μL of (10× conc.) of cytokine mix (GM-CSF and IFNa) (final conc. 10 ng/mL of GM-CSF and 100 ng/mL of IFNa) to each well except unstimulated and unstained controls and incubate further for 20 minutes on water bath at 37° C.
Add 900 μL of prewarmed 1× Fix/Lyse solution (Appendix) and mix it properly using 1000 μl multichannel, incubate further on water bath at 37° C. for 10 minutes (which includes time of addition). Centrifuge at 800×g for 5 minutes at 40° C.; remove 900 uL of supernatant and add 900 μL of 1×PBS. Centrifuge at 800×g for 5 minutes at 40° C., remove 900 μL of supernatant. […]

[6] = male, cynomolgus monkey, plasma, po, 50 mg/kg, PO BID, 50 mg/kg BID

relative stability among the three Compound 1 adipate forms [1]: most stable form | HPLC purity ([2]; 40° C./75% RH (open) @ 7 d, duplicate, batch from DMSO/EtOAc/EtOH): 99.75 and 99.86 | HPLC purity ([2]; 40° C./75% RH (open) @ 7 d, duplicate, batch from DMSO/EtOH/Water): 99.64 and 99.65 | HPLC purity ([2]; 40° C./75% RH (open) @ 7 d, duplicate, batch from acetone/water (19/1)): 99.43 and 99.44 | physical and chemical stability ([2]; 60° C. (capped) and 40° C./75% RH (open) for 1 week): both physically and chemically stable | HPLC purity ([2]; 60° C./capped @ 7 d, duplicate, batch from DMSO/EtOAc/EtOH): 99.85 and 99.82 | HPLC purity ([2]; 60° C./capped @ 7 d, duplicate, batch from DMSO/EtOH/Water): 99.65/99.65 | HPLC purity ([2]; 60° C./capped @ 7 d, duplicate, batch from acetone/water (19/1)): 99.44/99.44 | HPLC purity ([2]; Day 0, batch from DMSO/EtOAc/EtOH (Example 13Ac)): 99.86 | HPLC purity ([2]; Day 0, batch from DMSO/EtOH/Water (Example 13Ad)): 99.66 | HPLC purity ([2]; Day 0, batch from acetone/water (19/1) (Example 13Ab)): 99.49 | XRPD (crystal form at day 7) ([2]; batch from DMSO/EtOAc/EtOH): Adipate, Form 1 | XRPD (crystal form at day 7) ([2]; batch from DMSO/EtOH/Water): Adipate, Form 1 | XRPD (crystal form at day 7) ([2]; batch from acetone/water (19/1)): Adipate, Form 1 | % F (oral bioavailability) ([3]; PO, 5 mg/kg, Form 1, 5 mg/kg): 33.6% | AUClast ([3]; PO, 5 mg/kg, Form 1, 5 mg/kg): 2347 ng·h/mL | C0/Cmax ([3]; PO, 5 mg/kg, Form 1, 5 mg/kg): 672 ng/mL | Tmax ([3]; PO, 5 mg/kg, Form 1, 5 mg/kg): 2.67 h | AUC/Dose ([3]; PO, 5 mg/kg, Form 1, 5 mg/kg): 469 | AUC/Dose ([3]; PO, 100 mg/kg): 1083 | half-life ([3]; cynomolgus monkey, plasma, PO, 5 mg/kg): 2.66 h | AUC(0-t) ([3]; male, cynomolgus monkey, plasma, po, 100 mg/kg): 108000 ng·h/mL | Cmax ([3]; male, cynomolgus monkey, plasma, po, 100 mg/kg, PO, 100 mg/kg): 9770 ng/mL | Tmax ([3]; male, cynomolgus monkey, plasma, po, 100 mg/kg, PO, 100 mg/kg, read-out: Tmax): 4.67 h | PK compared to Compound 1 free base, Form A ([3]; oral gavage, Table 9): faster Tmax and higher AUC | hygroscopicity of the material (DVS) [4]: non-hygroscopic | water uptake (DVS) ([4]; 80% RH and 25° C.): less than 0.2% | Post-DVS analysis by XRPD [4]: no change
Compound: CNc1cc(Nc2cc(F)cc3c2OCCO3)nc2c(NC(=O)N[C@@H]3C[C@@H]3F)cnn12 [Compound 1 adipate, Form 1, 1-(5-((7-fluoro-2,3-dihydrobenzo[b][1,4]dioxin-5-yl)amino)-7-(methylamino)pyrazolo[1,5-a]pyrimidin-3-yl)-3-((1R,2S)-2-fluorocyclopropyl)urea adipate]
PK compared to Compound 1 oxalate, Form 1 ([3]; oral gavage, Table 10): faster Tmax, higher AUC, and higher oral bioavailability (% F)

water uptake (DVS) ([4]; 95% RH and 25° C.): 2.65% | Post-DVS analysis by XRPD [4]: no change
Compound: CNc1cc(Nc2cc(F)cc3c2OCCO3)nc2c(NC(=O)N[C@@H]3C[C@@H]3F)cnn12 [Compound 1 mesylate, Form 1, 1-(5-((7-fluoro-2,3-dihydrobenzo[b][1,4]dioxin-5-yl)amino)-7-(methylamino)pyrazolo[1,5-a]pyrimidin-3-yl)-3-((1R,2S)-2-fluorocyclopropyl)urea]

water uptake (DVS) ([4]; 95% RH and 25° C.): 0.68% | Post-DVS analysis by XRPD [4]: no change
Compound: CNc1cc(Nc2cc(F)cc3c2OCCO3)nc2c(NC(=O)N[C@@H]3C[C@@H]3F)cnn12 [Compound 1, Form B, 1-(5-((7-fluoro-2,3-dihydrobenzo[b][1,4]dioxin-5-yl)amino)-7-(methylamino)pyrazolo[1,5-a]pyrimidin-3-yl)-3-((1R,2S)-2-fluorocyclopropyl)urea]

C0/Cmax ([3]; PO, 5 mg/kg, Form 1, 5 mg/kg): 103 ng/mL | AUC/Dose ([3]; PO, 5 mg/kg, Form 1, 5 mg/kg): 302 | AUC(0-t) ([3]; male, cynomolgus monkey, plasma, po, 5 mg/kg): 1510 ng·h/mL | bioavailability ([3]; male, cynomolgus monkey, plasma, po, 5 mg/kg, PO, 5 mg/kg, read-out: % F (oral bioavailability)): 21.6% | Tmax ([3]; male, cynomolgus monkey, plasma, po, 5 mg/kg, PO, 5 mg/kg, read-out: Tmax): 4.67 h | hygroscopicity of the material (DVS) [4]: slightly hygroscopic | water uptake (DVS) ([4]; 80% RH and 25° C.): 0.37% | Post-DVS analysis by XRPD [4]: no change
Compound: CNc1cc(Nc2cc(F)cc3c2OCCO3)nc2c(NC(=O)N[C@@H]3C[C@@H]3F)cnn12 [Compound 1 oxalate, Form 1, 1-(5-((7-fluoro-2,3-dihydrobenzo[b][1,4]dioxin-5-yl)amino)-7-(methylamino)pyrazolo[1,5-a]pyrimidin-3-yl)-3-((1R,2S)-2-fluorocyclopropyl)urea]

IC50 [5]: < 1000 nM
Compound: CNc1cc(Nc2cc(F)cc3c2OCCO3)nc2c(NC(=O)N[C@@H]3C[C@@H]3F)cnn12 [Compound 1, 1-(5-((7-fluoro-2,3-dihydrobenzo[b][1,4]dioxin-5-yl)amino)-7-(methylamino)pyrazolo[1,5-a]pyrimidin-3-yl)-3-((1R,2S)-2-fluorocyclopropyl)urea]

hygroscopicity of the material (DVS) [4]: slightly hygroscopic | water uptake (DVS) ([4]; 80% RH and 25° C.): 1.20% | Post-DVS analysis by XRPD [4]: no change
Compound: CNc1cc(Nc2cc(F)cc3c2OCCO3)nc2c(NC(=O)N[C@@H]3C[C@@H]3F)cnn12 [Compound 1 phosphate, Form 1, 1-(5-((7-fluoro-2,3-dihydrobenzo[b][1,4]dioxin-5-yl)amino)-7-(methylamino)pyrazolo[1,5-a]pyrimidin-3-yl)-3-((1R,2S)-2-fluorocyclopropyl)urea]

AUC/Dose ([3]; PO BID, 50 mg/kg BID): 761 | AUC(0-t) [3, 6]: 76100 ng·h/mL | Tmax ([3]; male, cynomolgus monkey, plasma, po, 50 mg/kg, PO BID, 50 mg/kg BID, after second dose, read-out: Tmax): 7 h | Cmax [3, 6]: 5630 ng/mL | water uptake (DVS) ([4]; 95% RH and 25° C.): 5.08% | Post-DVS analysis by XRPD [4]: no change
Compound: CNc1cc(Nc2cc(F)cc3c2OCCO3)nc2c(NC(=O)N[C@@H]3C[C@@H]3F)cnn12 [Compound 1, Form A, 1-(5-((7-fluoro-2,3-dihydrobenzo[b][1,4]dioxin-5-yl)amino)-7-(methylamino)pyrazolo[1,5-a]pyrimidin-3-yl)-3-((1R,2S)-2-fluorocyclopropyl)urea]
